# Reference: ChEMBL document CHEMBL6153083, “Synthesis, Structural Modification, and Antismall Cell Lung Cancer Activity of 3-Arylisoquinolines with Dual Inhibitory Activity on Topoisomerase I and II” (J Med Chem, 2025)
# Tests used:
# [1] = Antiproliferative activity against human BEAS-2B cells incubated for 72 hrs; assay type: toxicity, cell-based
# [2] = system: NCI-H446; assay: Antiproliferative activity against human NCI-H446 cells incubated for 72 hrs; assay type: functional, cell-based; conditions: NCI-H446, 72 h
# [3] = system: NCI-H82; assay: Antiproliferative activity against human NCI-H82 cells incubated for 72 hrs; assay type: functional, cell-based; conditions: NCI-H82, 72 h
# [4] = Antiproliferative activity against human L02 cells incubated for 72 hrs; assay type: toxicity, cell-based
# [5] = Antiproliferative activity against human NCI-H196 cells incubated for 72 hrs; assay type: functional, cell-based; conditions: NCI-H196, 72 h
# [6] = system: SHP77; assay: Antiproliferative activity against human SHP77 cells incubated for 72 hrs; assay type: functional, cell-based; conditions: SHP77, 72 h
# [7] = system: NCI-H209; assay: Antiproliferative activity against human NCI-H209 cells incubated for 72 hrs; assay type: functional, cell-based; conditions: NCI-H209, 72 h
# [8] = system: NCI-H146; assay: Antiproliferative activity against human NCI-H146 cells incubated for 72 hrs; assay type: functional, cell-based; conditions: NCI-H146, 72 h
# [9] = system: NCI-H1048; assay: Antiproliferative activity against human NCI-H1048 cells incubated for 72 hrs; assay type: functional, cell-based; conditions: NCI-H1048, 72 h
SMILES,IC50 at 72 h [1],IC50 [2],IC50 [3],IC50 at 72 h [4],IC50 [5],IC50 [6],IC50 [7],IC50 [8],IC50 [9]
OCC1CCN(Cc2cc3c(cc2-c2cc4ccc5c(c4cn2)OCO5)OCO3)C1 (stereo unspecified),26.2 µM,68.4 µM,61.5 µM,43.2 µM,36 µM,32.9 µM,56.6 µM,17.1 µM,34.6 µM
CCC(=O)C1CCN(Cc2cc3c(cc2-c2cc4ccc5c(c4cn2)OCO5)OCO3)CC1,> 100 µM,21.2 µM,48.8 µM,41.7 µM,34.5 µM,26.5 µM,> 100 µM,42.6 µM,> 100 µM
c1c(CN2CCCCC2)c(-c2cc3ccc4c(c3cn2)OCO4)cc2c1OCO2,21.2 µM,20.2 µM,27.1 µM,25.2 µM,33.7 µM,30.2 µM,55.6 µM,> 100 µM,14.1 µM
c1c(CN2CCCCCCC2)c(-c2cc3ccc4c(c3cn2)OCO4)cc2c1OCO2,24.3 µM,1.48 µM,10.2 µM,23 µM,10.9 µM,5.09 µM,26.8 µM,15.1 µM,5.17 µM
NC(=O)C1CCN(Cc2cc3c(cc2-c2cc4ccc5c(c4cn2)OCO5)OCO3)CC1,28.8 µM,74.1 µM,63.4 µM,25.1 µM,57.7 µM,41.5 µM,77 µM,> 100 µM,38.6 µM
CC[C@@]1(O)C(=O)OCc2c1cc1n(c2=O)Cc2cc3c(CN(C)C)c(O)ccc3nc2-1 [TOPOTECAN],< 0.07 µM,22 µM,0.41 µM,0.26 µM,16.3 µM,0.19 µM,> 100 µM,< 1.56 µM,> 100 µM
ClC1CCN(Cc2cc3c(cc2-c2cc4ccc5c(c4cn2)OCO5)OCO3)CC1,> 100 µM,38.2 µM,> 100 µM,> 100 µM,62.4 µM,> 100 µM,> 100 µM,> 100 µM,> 100 µM
FC1CCN(Cc2cc3c(cc2-c2cc4ccc5c(c4cn2)OCO5)OCO3)CC1,> 100 µM,97.8 µM,> 100 µM,> 100 µM,> 100 µM,> 100 µM,> 100 µM,> 100 µM,> 100 µM
c1c(CN2CC3(CCCC3)C2)c(-c2cc3ccc4c(c3cn2)OCO4)cc2c1OCO2,14.8 µM,18.6 µM,26.6 µM,> 100 µM,15.9 µM,31.2 µM,34.2 µM,28.7 µM,19.9 µM
c1c(CN2CCCCCCCC2)c(-c2cc3ccc4c(c3cn2)OCO4)cc2c1OCO2,17 µM,12.5 µM,15 µM,24.8 µM,13.9 µM,16.3 µM,30.7 µM,14 µM,7.22 µM
CC1(CO)CCN(Cc2cc3c(cc2-c2cc4ccc5c(c4cn2)OCO5)OCO3)CC1,21.2 µM,65.8 µM,56.9 µM,37.9 µM,40.5 µM,22.6 µM,82.6 µM,70.3 µM,29.8 µM
CC(C)(C)C1CCN(Cc2cc3c(cc2-c2cc4ccc5c(c4cn2)OCO5)OCO3)CC1,> 100 µM,7.1 µM,2.96 µM,> 100 µM,7.5 µM,8.55 µM,> 100 µM,10.1 µM,2.68 µM
COC(=O)C1CCN(Cc2cc3c(cc2-c2cc4ccc5c(c4cn2)OCO5)OCO3)CC1,77.5 µM,65.6 µM,> 100 µM,,> 100 µM,> 100 µM,> 100 µM,> 100 µM,60.6 µM
c1c(CN2CCCCCC2)c(-c2cc3ccc4c(c3cn2)OCO4)cc2c1OCO2,12.3 µM,15.2 µM,16.9 µM,14.4 µM,24.3 µM,18 µM,39.5 µM,,15.4 µM
CN1CCC(C2CCN(Cc3cc4c(cc3-c3cc5ccc6c(c5cn3)OCO6)OCO4)CC2)CC1,12.2 µM,16.9 µM,12.4 µM,> 100 µM,31.8 µM,15.7 µM,26.8 µM,11.7 µM,20.2 µM
FC1(F)C2CCN(Cc3cc4c(cc3-c3cc5ccc6c(c5cn3)OCO6)OCO4)CC21 (stereo unspecified),10.3 µM,11.1 µM,44.2 µM,77.6 µM,27.4 µM,15.8 µM,30.9 µM,12.8 µM,21.5 µM

SMILES,IC50 at 72 h [1],IC50 [2],IC50 [3],IC50 at 72 h [4],IC50 [5],IC50 [6],IC50 [7],IC50 [8],IC50 [9]
FC1CN(Cc2cc3c(cc2-c2cc4ccc5c(c4cn2)OCO5)OCO3)C1,75.6 µM,49.8 µM,> 100 µM,59 µM,> 100 µM,44.9 µM,> 100 µM,,74.1 µM
c1c(CN2CCCC2)c(-c2cc3ccc4c(c3cn2)OCO4)cc2c1OCO2,29 µM,39.8 µM,59.7 µM,33.6 µM,34.3 µM,28.8 µM,81.2 µM,42.6 µM,25.3 µM
c1c(CN2CC3CCC(C2)O3)c(-c2cc3ccc4c(c3cn2)OCO4)cc2c1OCO2,57.3 µM,20.6 µM,,> 100 µM,31.3 µM,30.8 µM,46.5 µM,> 100 µM,
FC1CCCN(Cc2cc3c(cc2-c2cc4ccc5c(c4cn2)OCO5)OCO3)CC1 (stereo unspecified),33.7 µM,20.6 µM,37.8 µM,> 100 µM,35.7 µM,42.4 µM,58.3 µM,,17.7 µM
CC(=O)C1CCN(Cc2cc3c(cc2-c2cc4ccc5c(c4cn2)OCO5)OCO3)CC1,> 100 µM,49.2 µM,> 100 µM,> 100 µM,51.5 µM,93.9 µM,> 100 µM,> 100 µM,> 100 µM
CC(O)C1CCN(Cc2cc3c(cc2-c2cc4ccc5c(c4cn2)OCO5)OCO3)CC1 (stereo unspecified),21.8 µM,27.5 µM,47.7 µM,30.3 µM,32.3 µM,28.4 µM,62.2 µM,24.4 µM,38.2 µM
CC(C)C1CCCCCN1Cc1cc2c(cc1-c1cc3ccc4c(c3cn1)OCO4)OCO2 (stereo unspecified),26.5 µM,1.22 µM,1.72 µM,20.5 µM,17.9 µM,8.23 µM,18.1 µM,,18.1 µM
CC1(C)CCN(Cc2cc3c(cc2-c2cc4ccc5c(c4cn2)OCO5)OCO3)C1,17 µM,12.5 µM,15 µM,24.8 µM,13.9 µM,16.3 µM,30.7 µM,14 µM,7.22 µM
OCCCC1CCN(Cc2cc3c(cc2-c2cc4ccc5c(c4cn2)OCO5)OCO3)CC1,24.8 µM,19.5 µM,41.1 µM,52.2 µM,28.2 µM,26.3 µM,68.5 µM,21.1 µM,24.4 µM
CC1(F)CN(Cc2cc3c(cc2-c2cc4ccc5c(c4cn2)OCO5)OCO3)C1,> 100 µM,38.5 µM,> 100 µM,> 100 µM,> 100 µM,> 100 µM,> 100 µM,,> 100 µM
CC1CCCCN1Cc1cc2c(cc1-c1cc3ccc4c(c3cn1)OCO4)OCO2 (stereo unspecified),19.4 µM,14.4 µM,38.6 µM,42.4 µM,37.5 µM,40.4 µM,49.6 µM,39 µM,16.7 µM
CC1CCCN(Cc2cc3c(cc2-c2cc4ccc5c(c4cn2)OCO5)OCO3)C1 (stereo unspecified),14.3 µM,23.1 µM,29.8 µM,43 µM,27.4 µM,17.9 µM,40.6 µM,31.4 µM,10 µM
CN1CCCN(Cc2cc3c(cc2-c2cc4ccc5c(c4cn2)OCO5)OCO3)CC1,> 100 µM,10.4 µM,6.49 µM,> 100 µM,19.8 µM,22.3 µM,> 50 µM,,32.1 µM
FC1(F)CCCN(Cc2cc3c(cc2-c2cc4ccc5c(c4cn2)OCO5)OCO3)CC1,24.2 µM,39.3 µM,31.3 µM,36.6 µM,56.4 µM,31.3 µM,45 µM,,19.1 µM
COc1ccc2cc3[n+](cc2c1OC)CCc1cc2c(cc1-3)OCO2 [BERBERINE],> 100 µM,78.6 µM,,> 100 µM,> 100 µM,> 100 µM,65 µM,> 100 µM,> 100 µM
CC1CCN1Cc1cc2c(cc1-c1cc3ccc4c(c3cn1)OCO4)OCO2 (stereo unspecified),27.7 µM,48.8 µM,56.2 µM,33.8 µM,46.3 µM,42.6 µM,48.8 µM,,42.3 µM
